Laboratory results as given in patent US11077090B2, “Compounds and compositions and uses thereof” (Sunovion Pharmaceuticals Inc., priority 2016, dated 2021).

How the values were obtained:
[1] = system: Male C57Bl/6J mice; experiment: Marble burying test; type: in vivo; set-up: key: −: No reduction in number of marbles buried; +: Significant reduction in number of marbles buried (P < 0.05 vs vehicle); conditions: 1 mg/kg (i.p.)
Outline: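 Mice (n=10/group) dosed i.p. or p.o. with compound or water 30 min before a 30-min session in cages with twenty marbles; marbles at least two-thirds covered scored buried. Distance traveled tracked by overhead camera for locomotion; fewer marbles buried than vehicle indicates anxiolytic-like effect.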

[2] = system: male Sprague-Dawley rats; experiment: Stress induced hyperthermia (SIH) assay; type: in vivo; set-up: key: −: No change in Delta T ([…]T); +: Significant decrease in Delta T ([…]T) (P < 0.05 vs vehicle)
From the text: Stress-induced hyperthermia (SIH), mediated by the autonomic nervous system, is well known to occur prior to and during exposure to stress and/or anxiety-inducing situations. In many human anxiety disorders, it occurs as an integral part of the pathology and is often considered a representative symptom of the disease, e.g. in generalized anxiety disorder as defined in DSM-IV. In rodents, acute administration of anxiolytic drugs, such as buspirone or chlordiazepoxide (CDP), are known to reduce the SIH response to stressors such as handling, noise, heat, novelty, or pain. The test involves two measures of rectal temperature repeated in the same animal with a 10-minute interval. On the day prior to testing, male Sprague-Dawley rats from Envigo (n=10 per group) were brought to the experimental room approximately one hour before scheduled lights out and singly housed overnight with food and water ad libitum. On the morning of the experiment, animals were first injected with either vehicle or test compound orally by gavage, or CDP (10 mg/kg, i.p.). One hour following injection, each animal was removed from the holding cage and held in a supine position while the rectal temperature was measured by slowly inserting a rectal probe into the animal's rectum at a length of approximately 0.5 cm. The rectal probe was attached to a PhysiTemp digital thermometer (Fisher Scientific) which provides temperature readings at 0.1° C. accuracy. The probe remained inside the animal for approximately 5 seconds or until body temperature reaches stability. This temperature was recorded as the baseline rectal temperature (T1). The animal was immediately placed back to the holding cage and after a 10-min interval the second rectal temperature (T2) was taken using the same procedure as in measuring T1. Before each insertion, the rectal probe was cleaned with an alcohol pad and lubricated with sterile K-Y jelly. All SIH studies were conducted between 8:00-11:00 a.m. The SIH response was calculated as the difference in temperature between the second and first temperature reading (Delta T, […]T). A reduction in […]T relative to the vehicle condition indicates an anxiolytic drug-like response.

[3] = system: extracellular concentrations of neurotransmitters (DA, 5-HT, NE, ACh) in the prefrontal cortex (PFC); experiment: In vivo microdialysis of the prefrontal cortex; set-up: key: −: No change in extracellular concentration (P < 0.05 vs vehicle); +: Significant increase in extracellular concentration (P < 0.05 vs vehicle); conditions: mice
From the text: (§1) In vivo microdialysis is a biological sampling technique used to evaluate the extracellular concentrations of neurotransmitters in specific brain regions following administration of a test compound to animals. Dysfunctions of brain neurotransmitter systems, such as dopamine (DA), norepinephrine (NE), serotonin (5-HT) and/or acetylcholine (ACh), have been linked to cognitive deficits (e.g., memory impairment, inattention, etc.), which may be observed in human aging, Alzheimer's disease (AD) and Attention Deficit Hyperactivity Disorder (ADHD). Drugs that increase extracellular concentrations of DA, NE, 5-HT and/or ACh in the prefrontal cortex (PFC), such as donepezil and methylphenidate, can reverse cognitive deficits in humans and animals.
(§2) Adult male C57Bl/6 mice (n=6 per group) from Jackson Laboratories were anesthetized using isoflurane (2%, 800 mL/min O2). Bupivacaine/epinephrine was used for local anesthesia and carprofen was used for peri-/post-operative analgesia. The animals were placed in a stereotaxic frame (Kopf instruments, USA) and I-shaped microdialysis probes (polyacrylonitril membrane, BrainLink, the Netherlands) were inserted into the PFC (2 mm exposed membrane; coordinates for the tips of the probes: posterior (AP)=+2.0 mm to bregma, lateral (L)=−0.5 mm to midline and ventral (V)=−3.3 mm to dura, the toothbar set at 0.0 mm) and the NAcc (coordinates for the tips of the probes: posterior (AP)=+0.8 mm to bregma, lateral (L)=+0.9 mm to midline and ventral (V)=−4.2 mm to dura, the toothbar set at 0.0 mm (Paxinos and Franklin, 2001)). After surgery, animals were housed individually in cages and provided food and water ad libitum. In vivo microdialysis experiments were performed one day after surgery. On the day of the experiment, the microdialysis probes were connected with flexible PEEK tubing to a microperfusion pump (Harvard PHD 2000 Syringe pump, Holliston, Mass. or similar). Microdialysis probes were perfused with artificial cerebrospinal fluid (aCSF) containing 147 mM NaCl, 3.0 mM KCl, 1.2 mM CaCl2 and 1.2 mM MgCl2, at a flow rate of […]. Microdialysis samples were collected for 30 minute periods by an automated fraction collector (820 Microsampler, Univentor, Malta or similar) into polystyrene mini-vials already containing 15 μL of 0.02 M formic acid (FA) and 0.04% ascorbic acid in ultrapurified H2O. Four basal samples were collected before the administration of vehicle or test compound (i.p., 5 mL/kg injection volumes). Samples were collected for an additional 240 min following vehicle or compound administration. All the dialysis samples were stored at −80° C. awaiting analysis. After the experiment, the mice were sacrificed and brain tissue was collected for probe verification. Each dialysis sample was analyzed for concentrations of DA, NE, 5-HT and ACh as determined by HPLC with tandem mass spectrometry (MS/MS) detection using labeled isotopes of the analytes of interest as internal standards. Data was expressed as a percentage of basal output, calculated by dividing each post-dose time point with the average basal output=100%. An increase in the post-dose percent basal output of DA, NE, 5-HT and/or ACh in the PFC relative to the vehicle condition indicates a potential cognition-enhancing drug-like response. Graphical representations of the observed changes in neurotransmitter concentrations are shown in the indicated Figures.

[4] = system: extracellular concentrations of neurotransmitters (DA, 5-HT, NE, ACh) in the nucleus accumbens (NAcc); experiment: In vivo microdialysis of the nucleus accumbens; set-up: key: −: No change in extracellular concentration (P < 0.05 vs vehicle); +: Significant increase in extracellular concentration (P < 0.05 vs vehicle); conditions: mice
From the text: as §1, §2

SMILES	Marbles Buried [1]	Delta T ([…]T) ([2]; 0.3 mg/kg PO)	PFC [5-HT] (FIG. 2) ([3]; 10 mg/kg IP)	PFC [ACh] (FIG. 4) ([3]; 10 mg/kg IP)	PFC [DA] (FIG. 1) ([3]; 10 mg/kg IP)	PFC [NE] (FIG. 3) ([3]; 10 mg/kg IP)	NAcc [5-HT] (FIG. 6) ([4]; 10 mg/kg IP)	NAcc [ACh] (FIG. 8) ([4]; 10 mg/kg IP)	NAcc [DA] (FIG. 5) ([4]; 10 mg/kg IP)	NAcc [NE] (FIG. 7) ([4]; 10 mg/kg IP)	Delta T ([…]T) ([2]; 3 mg/kg PO)	PFC [5-HT] (FIG. 2) ([3]; 30 mg/kg IP)	PFC [ACh] (FIG. 4) ([3]; 30 mg/kg IP)	PFC [DA] (FIG. 1) ([3]; 30 mg/kg IP)	PFC [NE] (FIG. 3) ([3]; 30 mg/kg IP)	NAcc [5-HT] (FIG. 6) ([4]; 30 mg/kg IP)	NAcc [ACh] (FIG. 8) ([4]; 30 mg/kg IP)	NAcc [DA] (FIG. 5) ([4]; 30 mg/kg IP)	NAcc [NE] (FIG. 7) ([4]; 30 mg/kg IP)	Delta T ([…]T) ([2]; 1 mg/kg PO)
C[C@@H]1OCc2ccccc2[C@H]1N (single isomer, unassigned) [Compound 152]	−	−	+	+	+	+	+	−	−	+										
Cc1cccc2c1[C@@H](N)[C@@H](C)OC2 (single isomer, unassigned) [Compound 170]	−										−	−	−	+	+	−	−	−	+	
Cc1ccc2c(c1)[C@H](N)[C@H](C)OC2 [Compound 157]	−											+	−	+	+	−	−	−	+	−
